Data: ChEMBL document CHEMBL1155207, “Palbinone and triterpenes from Moutan Cortex (Paeonia suffruticosa, Paeoniaceae) stimulate glucose uptake and glycogen synthesis via activation of AMPK in insulin-resistant human HepG2 Cells” (Bioorg Med Chem Lett, 2009)
Activity calls are given as the source filed them. The calls are words filed in the database; no cut-off is given here.

Assays:
HepG2 [1] = assay: Increase in glycogen synthesis in human HepG2 cells assessed as incorporation of [14C]glucose in to cellular glycogen pools at 10 uM after 60 mins in presence of 33 mM glucose; type: functional, cell-based
[2] = Cytotoxicity against human HepG2 cells assessed as cell survival at 5 uM after 24 hrs by MTT assay; type: cell-based; settings: read-out: Survival
[3] = target: Glycogen synthase kinase-3 beta (Homo sapiens) (UniProt P49841); assay: Induction of GSK3-beta phosphorylation in human HepG2 cells at 10 uM by Western blot analysis in presence of 33 mM glucose; type: cell-based
[4] = Cytotoxicity against human HepG2 cells assessed as cell survival at 10 uM after 24 hrs by MTT assay; type: cell-based; settings: read-out: Survival
HepG2 [5] = assay: Induction of glucose uptake in human HepG2 cells at 10 uM in presence of 33 mM […] by scintillation counting; type: functional, cell-based
[6] = Cytotoxicity against human HepG2 cells assessed as cell survival at 20 uM after 24 hrs by MTT assay; type: cell-based; settings: read-out: Survival
[7] = Cytotoxicity against human HepG2 cells assessed as cell survival at 100 uM after 24 hrs by MTT assay; type: cell-based; settings: read-out: Survival
[8] = target: T1, AMP-activated protein kinase, AMPK (Homo sapiens) (UniProt P54646+O43741+P54619+Q9UGJ0+Q9Y478+Q13131+Q9UGI9); assay: Induction of AMPK phosphorylation in human HepG2 cells at 10 uM by Western blot analysis in presence of 33 mM glucose; type: cell-based
HepG2 [9] = assay: Induction of glucose uptake in human HepG2 cells in presence of 33 mM […] by scintillation counting; type: functional, cell-based
HepG2 [10] = assay: Induction of acetyl-coA carboxylase phosphorylation in human HepG2 cells by Western blot analysis in presence of 33 mM glucose; type: cell-based
HepG2 [11] = assay: Increase in glycogen synthesis in human HepG2 cells assessed as incorporation of [14C]glucose in to cellular glycogen pools at 1 uM after 60 mins in presence of 33 mM glucose; type: functional, cell-based
[12] = target: T1, AMP-activated protein kinase, AMPK (Homo sapiens); assay: Induction of AMPK phosphorylation in human HepG2 cells by Western blot analysis in presence of 33 mM glucose; type: cell-based
[13] = target: Glycogen synthase kinase-3 beta (Homo sapiens) (UniProt P49841); assay: Induction of GSK3-beta phosphorylation in human HepG2 cells by Western blot analysis in presence of 33 mM glucose; type: cell-based

Sequence of Glycogen synthase kinase-3 beta (Homo sapiens) (P49841 whole entry, looked up): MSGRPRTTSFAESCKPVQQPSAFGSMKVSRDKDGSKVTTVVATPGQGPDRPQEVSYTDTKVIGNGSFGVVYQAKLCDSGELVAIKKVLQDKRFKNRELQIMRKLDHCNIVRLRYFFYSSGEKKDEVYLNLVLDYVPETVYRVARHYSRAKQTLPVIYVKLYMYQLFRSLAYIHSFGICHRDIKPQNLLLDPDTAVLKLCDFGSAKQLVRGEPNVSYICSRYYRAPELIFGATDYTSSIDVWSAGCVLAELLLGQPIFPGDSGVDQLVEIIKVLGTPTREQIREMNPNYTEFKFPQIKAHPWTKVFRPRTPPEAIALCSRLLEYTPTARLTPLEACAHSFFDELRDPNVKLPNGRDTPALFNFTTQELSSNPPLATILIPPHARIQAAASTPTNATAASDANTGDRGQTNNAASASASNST

| Structure (SMILES) | Activity (HepG2 [1]) | viability at 24 h, 5 µM [2] [%] | Activity [3] | viability at 24 h, 10 µM [4] [%] | Activity (HepG2 [5]) | viability at 24 h, 20 µM [6] [%] | viability at 24 h, 100 µM [7] [%] | Activity [8] | Activity (HepG2 [9]) | Activity (HepG2 [10]) | Activity (HepG2 [11]) | Activity [12] | Activity [13] |
| --- | --- | --- | --- | --- | --- | --- | --- | --- | --- | --- | --- | --- | --- |
| CC1(C)CC[C@]2(C(=O)O)CC[C@]3(C)C(=CC[C@@H]4[C@@]5(C)CC[C@H](O)C(C)(C)[C@@H]5CC[C@]43C)[C@@H]2C1 [OLEANOLIC_ACID] | Active | 97.8 | Active | 99.9 | Active | 82.4 | 54.1 | Active | – | – | – | – | – |
| CC[C@H](CC[C@@H](C)[C@H]1CC[C@H]2[C@@H]3CC=C4C[C@@H](O)CC[C@]4(C)[C@H]3CC[C@]12C)C(C)C [BETA-SITOSTEROL] | Active | 98.8 | Active | 99.7 | Active | 82.3 | 57.8 | Active | – | – | – | – | – |
| C[C@H]1[C@H](C)CC[C@]2(C(=O)O)CC[C@]3(C)C(=CC[C@@H]4[C@@]5(C)CC[C@H](O)C(C)(C)[C@@H]5CC[C@]43C)[C@H]12 [URSOLIC ACID] | Active | 97.1 | Active | 99.2 | Active | 82 | 55.8 | Active | – | – | – | – | – |
| CC1(C)[C@@H](O)CC[C@]2(C)[C@H]3C=CC4=C(O)C(=O)C(=O)[C@@]4(C)[C@]3(C)CC[C@@H]12 [PALBINONE] | Active | 98.7 | Active | 99.8 | Active | 81.5 | 41.6 | Active | Dose-dependent effect | Dose-dependent effect | Active | Dose-dependent effect | Dose-dependent effect |
| C=C(C)[C@@H]1CC[C@]2(C(=O)O)CC[C@]3(C)[C@H](CC[C@@H]4[C@@]5(C)CC[C@H](O)C(C)(C)[C@@H]5CC[C@]43C)[C@@H]12 [BETULINIC ACID] | Active | 99.6 | Active | 91.3 | Active | 81.2 | 52.9 | Active | – | – | – | – | – |
| CC[C@H](CC[C@@H](C)[C@H]1CC[C@H]2[C@@H]3CC=C4C[C@@H](O[C@@H]5O[C@H](CO)[C@@H](O)[C@H](O)[C@H]5O)CC[C@]4(C)[C@H]3CC[C@]12C)C(C)C [SITOGLUSIDE] | Active | 99.9 | Active | 92.8 | Active | 82.7 | 66.3 | Active | – | – | – | – | – |
| C=C1CC[C@]2(C(=O)O)CC[C@]3(C)C(=CC[C@@H]4[C@@]5(C)CC[C@H](O)[C@@](C)(CO)[C@@H]5CC[C@]43C)[C@@H]2C1 | Active | 100 | Active | 96.7 | Active | 84.6 | 65 | Active | – | – | – | – | – |
